Assays:
[1] = test system: conscious, freely-moving rats; assay: regional haemodynamics in conscious, freely-moving rats (responses to salbutamol and isoprenaline); format: in vivo, rat; conditions: atropine-treated rats
Source text: Preliminary assessment of the action of one of the compounds of the invention was undertaken using an in vivo model for monitoring regional haemodynamics in conscious, freely-moving rats (Gardiner & Bennett, Am J Physiol. 1988 October; 255(4 Pt 2):H813-24). This model has the distinct advantage of enabling measurement of regional blood flow in addition to blood pressure in the fully conscious state.

human beta2-adrenoceptor = biological target: T1, human beta2-adrenoceptor (Homo sapiens, UniProt P07550); assay: 3H-CGP12177 whole-cell binding, CHO cells expressing human beta2-adrenoceptor; conditions: 3H-CGP 12177 whole cell binding, log KD, mean ± s.e.mean, read-out: Beta 2 Log KD (converted)
T1 construct: expressed in transfected cells; host or cells: CHO cells
Source text: (§1) The selectivity of a ligand is given by the ratio of beta-1 to beta-2 KD.

human beta3-adrenoceptor = biological target: T2, human beta3-adrenoceptor (Homo sapiens, UniProt P13945); assay: 3H-CGP12177 whole-cell binding, CHO cells expressing human beta3-adrenoceptor; conditions: 3H-CGP 12177 whole cell binding, log KD, mean ± s.e.mean, read-out: Beta 3 Log KD (converted)
T2 construct: expressed in transfected cells; host or cells: CHO cells

beta1-adrenoceptor [2] = biological target: T3, beta1-adrenoceptor (Homo sapiens, UniProt P08588); assay: 3H-CGP12177 whole-cell binding, CHO cells expressing human beta1-adrenoceptor; set-up: expressed in transfected cells; host or cells: CHO cells; conditions: 3H-CGP 12177 whole cell binding, log KD, mean ± s.e.mean, read-out: Beta 1 Log KD (converted)
Source text: as §1
Target sequence in this assay (P08588 whole entry): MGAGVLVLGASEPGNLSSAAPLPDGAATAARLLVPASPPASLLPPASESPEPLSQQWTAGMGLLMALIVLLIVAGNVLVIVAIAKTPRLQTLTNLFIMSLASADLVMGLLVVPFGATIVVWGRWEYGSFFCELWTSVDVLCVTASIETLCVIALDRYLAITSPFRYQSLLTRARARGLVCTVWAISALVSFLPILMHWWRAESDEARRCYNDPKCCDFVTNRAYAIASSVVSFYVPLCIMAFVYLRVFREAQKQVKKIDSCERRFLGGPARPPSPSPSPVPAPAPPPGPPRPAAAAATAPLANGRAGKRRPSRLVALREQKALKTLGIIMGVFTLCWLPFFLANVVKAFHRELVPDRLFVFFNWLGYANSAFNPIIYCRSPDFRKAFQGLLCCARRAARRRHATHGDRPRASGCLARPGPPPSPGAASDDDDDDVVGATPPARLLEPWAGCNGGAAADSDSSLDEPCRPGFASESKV

beta1-adrenoceptor [3] = biological target: T3, beta1-adrenoceptor; conditions: background statement; cited from earlier work
Target sequence in this assay (P08588 whole entry, species assumed): as the sequence (P08588 whole entry) above

T1 sequence (P07550 whole entry): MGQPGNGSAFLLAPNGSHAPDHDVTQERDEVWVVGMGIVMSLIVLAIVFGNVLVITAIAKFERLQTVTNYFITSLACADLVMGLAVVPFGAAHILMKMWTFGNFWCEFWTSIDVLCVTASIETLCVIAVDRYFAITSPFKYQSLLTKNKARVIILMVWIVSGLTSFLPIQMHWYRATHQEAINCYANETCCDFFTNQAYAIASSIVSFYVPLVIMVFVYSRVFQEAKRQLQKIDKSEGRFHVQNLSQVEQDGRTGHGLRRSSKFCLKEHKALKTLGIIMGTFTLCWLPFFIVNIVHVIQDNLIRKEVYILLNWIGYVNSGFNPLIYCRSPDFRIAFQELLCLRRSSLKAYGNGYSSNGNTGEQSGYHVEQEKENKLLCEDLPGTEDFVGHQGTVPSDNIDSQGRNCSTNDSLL
T2 sequence (P13945 whole entry): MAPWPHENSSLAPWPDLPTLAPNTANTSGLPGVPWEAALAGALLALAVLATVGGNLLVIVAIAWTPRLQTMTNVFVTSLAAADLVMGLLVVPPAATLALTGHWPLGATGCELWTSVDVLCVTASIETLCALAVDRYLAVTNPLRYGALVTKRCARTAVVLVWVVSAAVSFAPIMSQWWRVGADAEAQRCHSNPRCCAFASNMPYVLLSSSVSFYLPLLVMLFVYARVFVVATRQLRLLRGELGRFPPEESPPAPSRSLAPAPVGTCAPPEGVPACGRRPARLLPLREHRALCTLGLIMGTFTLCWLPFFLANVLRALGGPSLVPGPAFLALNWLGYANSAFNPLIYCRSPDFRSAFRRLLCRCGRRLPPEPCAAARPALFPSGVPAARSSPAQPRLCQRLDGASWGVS

Row | SMILES | beta1-adrenoceptor selectivity in a conscious rat cardiovascular model ([1]; 10 mg/kg i.v.) | reflex heart rate response to salbutamol ([1]; n=4, after 46a 10 mg/kg i.v., before +55±14) | isoprenaline-induced tachycardia ([1]; n=4, after 46a 10 mg/kg i.v., before +74±12) | increase in hindquarters vascular conductance (salbutamol) ([1]; n=4, after 46a 10 mg/kg i.v., before +106±20) | increase in hindquarters vascular conductance (isoprenaline) ([1]; n=4, after 46a 10 mg/kg i.v., before +126±20) | hypotension (salbutamol) ([1]; n=4, after 46a 10 mg/kg i.v., before −11±1) [mmHg] | hypotension (isoprenaline) ([1]; n=4, after 46a 10 mg/kg i.v., before −19±3) [mmHg] | Kd (human beta2-adrenoceptor) [nM] | Kd (human beta3-adrenoceptor) [nM] | Kd (beta1-adrenoceptor [2]) [nM] | melting point [°C] | β1-selectivity (beta1-adrenoceptor [3]) [fold]
1 | O=C(NCCNCC(O)COc1ccc(OCCOCC2CC2)cc1)Nc1ccc(O)cc1 (stereo not drawn) [46a] | highly beta1-adrenoceptor selective | +7±4 beats/min | +11±4 beats/min | +98±15% | +129±19% | −11±3 | −18±2 | > 100000 | 24500 | 30.2 | – | –
2 | O=C(NCCNCC(O)COc1ccc(OCCOC2CCCC2)cc1)c1ccccc1F (stereo not drawn) [54g] | – | – | – | – | – | – | – | 1740 | 3090 | 204 | 75 to 76 | –
3 | O=C(NCCNCC(O)COc1ccc(OCCOC2CCCC2)cc1)c1cccc(F)c1 (stereo not drawn) [54h] | – | – | – | – | – | – | – | 550 | 1120 | 74.1 | 85 to 86 | –
4 | O=C(NCCNCC(O)COc1ccc(OCCOC2CCCC2)cc1)c1ccc(F)cc1 (stereo not drawn) [54i] | – | – | – | – | – | – | – | 363 | 2040 | 27.5 | 99 to 100 | –
5 | CCOCCOc1ccc(OC[C@@H](O)CNCCc2ccc(OC)c(OC)c2)cc1 [D-140S] | – | – | – | – | – | – | – | – | – | – | – | 4.400
6 | OC(CNCCOc1ccccc1)COc1ccc(OCCOC2CCCC2)cc1 (stereo not drawn) [compound 48, 1-(2-Phenoxyethylamino)-3-(4-(2-(cyclopentyloxy)ethoxy)phenoxy)propan-2-ol] | – | – | – | – | – | – | – | 912 | 4470 | 34.7 | 155 to 157 | –
